Assay [1] has as its target T1, human BRD4 bromodomain II (Homo sapiens, UniProt O60885).
T1 construct: human BRD4 bromodomain II [based on Genbank NM_058243, residues 349-460]; host or cells: E. coli
The experiment in a line: Bromodomain binding assay (AlphaScreen), BRD4 BDII. As to conditions: AlphaScreen assay, Table C2; read-out: BRD4 BDII IC50. The gist of the method:
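E. coli-expressed N-terminal His6-tagged human BRD4 BDII (residues 349-460) or BDI (residues 44-170) was preincubated 30 min at room temperature with compound (10-point, 3-fold) in pH 7.5 HEPES buffer, 1% DMSO. Displacement of biotinylated tetra-acetylated H4 1-21 peptide was read by AlphaScreen, and IC50 came from curve fitting.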

The test system of assay [2] is human SKM-1 acute myeloid leukemia cells. The experiment in a line: SKM-1 antiproliferation cell-based assay (ATPlite). As to conditions: Homo sapiens. As for the experimental part:
The cell-based assay indirectly measures cell density (and therefore proliferation and/or survival) by detecting total ATP concentration in a homogeneous format. Briefly, human SKM-1 acute myeloid leukemia cells (Leibniz Institute DSMZ #ACC 547) proliferating in log phase are collected by centrifugation, re-suspended in culture media (RPMI 1640/15% FBS/100 U/mL penicillin/100 μg/mL streptomycin) and diluted to 34722 cells/mL in media after counting. Then 180 μL cells are plated per well into a 96-well tissue-culture treated, clear bottom plate (Coming #3603). A 96-well compound plate (Corning #3357) is then generated by serial dilution of compounds into DMSO over nine concentrations and adding separate negative (DMSO) and positive control (reference compound) wells. Each compound concentration is tested in triplicate. First, 1 μL from each well of the compound plate is added to 99 μL culture media in an intermediate plate and mixed by pipetting. Then 20 μL of the diluted compounds in media are added to the assay plate containing the cells. The assay plate is maintained for 4 days in a standard cell culture incubator. At the end of the incubation period, 100 μL ATPlite Istep (PerkinElmer) is added to the assay plate wells, and the resulting luminescence is detected using an Infinite M1000 or a Spark multimode plate reader (Tecan). Data analysis is performed in Prism (GraphPad Software). For curve fitting, a non-linear regression, variable slope equation is used to calculate cellular IC50s.

[3] abbreviates: SKM-1, 96 h, SKM-1 antiproliferation assay, 4 days, Table C2.
Where [4] appears, read: SKM-1, SKM-1 antiproliferation assay.

As a reminder, the IC50 is the midpoint of a concentration-inhibition curve. Usually GI50 stands for the concentration that inhibits growth by half. The low end stands for more potent growth inhibition, the high end for less potent growth inhibition.

Turning to `CC(=O)Nc1c(F)cc(-c2cccc(-c3cc(N4CCNCC4)no3)c2O)cc1OC1CC1` [Example 135, N-(3-cyclopropoxy-5-fluoro-2′-hydroxy-3′-(3-(piperazin-1-yl)isoxazol-5-yl)-[1,1′-biphenyl]-4-yl)acetamide 2,2,2-trifluoroacetate], the IC50 in assay [1] is 1 to 10 nM. Further, the GI50 in assay [2] (setting [3]) is 300 to 3000 nM.

Turning to `CN1CCN(c2ccc(-c3cccc(-c4cccc(N5CCNCC5)c4)c3O)cc2F)C1=O` [Example 164, 1-(3-Fluoro-2′-hydroxy-3″-(piperazin-1-yl)-[1,1′:3′,1″-terphenyl]-4-yl)-3-methylimidazolidin-2-one], in assay [1], the IC50 lay within 1 to 10 nM. Further, the GI50 in assay [2] (setting [3]) is 300 to 3000 nM.

In the case of `O=C1CCCN1c1ccc(-c2cccc(-c3cccc(N4CCNCC4)c3)c2O)cc1F` [Example 173, 1-(3-fluoro-2′-hydroxy-3″-(piperazin-1-yl)-[1,1′:3′,1″-terphenyl]-4-yl)pyrrolidin-2-one], the IC50 in assay [1] is 1 to 10 nM. The GI50 in assay [2] (setting [3]) fell in the range of 300 to 3000 nM.

As for `CC(=O)Nc1ccc(-c2cc(F)cc(-c3cccc(N4CCNCC4)c3)c2O)cc1F` [Example 180, N-(3,5′-difluoro-2′-hydroxy-3″-(piperazin-1-yl)-[1,1′:3′,1″-terphenyl]-4-yl)acetamide], the half-maximal inhibitory concentration (IC50) in assay [1] fell in the range of 1 to 10 nM. The compound further displayed a GI50 in assay [2] (setting [3]) of 300 to 3000 nM.

In the case of `CC(=O)Nc1ccc(-c2cccc(-c3ccc(F)c(N4CCNCC4)c3)c2O)cc1F` [Example 182, N-(3,4″-difluoro-2′-hydroxy-3(piperazin-1-yl)-[1,1′:3′,1″-terphenyl]-4-yl)acetamide], the IC50 in assay [1] is 1 to 10 nM. For the same compound, in assay [2] (setting [3]), the GI50 fell in the range of 300 to 3000 nM.

Regarding `CC(=O)Nc1ccc(-c2cccc(-c3cncc(N4CCNCC4)c3)c2O)cc1F` [Example 189, N-(3-fluoro-2′-hydroxy-3′-(5-(piperazin-1-yl)pyridin-3-yl)-[1,1′-biphenyl]-4-yl)acetamide], the IC50 in assay [1] is 1 to 10 nM. The compound further came in with a GI50 in assay [2] (setting [3]) of 30 to 300 nM.

In assay [2] (setting [4]), `Cn1ccn(-c2ccc(-c3cc(C=O)cc(-c4cccc(N5CCN(C(C)(C)C)CC5)c4)c3O)cc2Cl)c1=O` [Example 1042, 3″-(4-(tert-Butyl)piperazin-1-yl)-3-chloro-2′-hydroxy-4-(3-methyl-2-oxo-2,3-dihydro-1H-imidazol-1-yl)-[1,1′:3′,1″-terphenyl]-5′-carbaldehyde] came in with a GI50 of 300 to 3000 nM.

In the case of `Cc1ncc(-c2nc(F)cc(-c3ccc(-n4ccn(C)c4=O)c(Cl)c3)c2O)cc1N1CCN(C(C)(C)C)CC1` [Example 1043, 1-(4-(5′-(4-(tert-Butyl)piperazin-1-yl)-6-fluoro-3-hydroxy-6′-methyl-[2,3′-bipyridin]-4-yl)-2-chlorophenyl)-3-methyl-1H-imidazol-2(3H)-one], the GI50 in assay [2] (setting [4]) lay within 30 to 300 nM.

`COc1ncc(-c2nc(F)cc(-c3ccc(-n4ccn(C)c4=O)c(Cl)c3)c2O)cc1N1CCN(C(C)(C)C)CC1` [Example 1044, 1-(4-(5′-(4-(tert-Butyl)piperazin-1-yl)-6-fluoro-3-hydroxy-6′-methoxy-[2,3′-bipyridin]-4-yl)-2-chlorophenyl)-3-methyl-1H-imidazol-2(3H)-one] registered a GI50 in assay [2] (setting [4]) of 0.3 to 30 nM.

Compound `CC(C)(C)N1CCN(c2cccc(-c3cc(F)cc(-c4ccc(N5CCCC5=O)c(Cl)c4)c3O)c2)CC1` [Example 1045, 1-(3″-(4-(tert-Butyl)piperazin-1-yl)-3-chloro-5′-fluoro-2′-hydroxy-[1,1′:3′,1″-terphenyl]-4-yl)pyrrolidin-2-one] yielded a 50% growth inhibitory concentration (GI50) in assay [2] (setting [4]) of 30 to 300 nM.

Turning to `Cc1cc(-c2ccc(N3CCN(C)C3=O)c(Cl)c2)c(O)c(-c2cccc(N3CCN(C(C)(C)C)CC3)c2)n1` [Example 1046, 1-(4-(2-(3-(4-(tert-Butyl)piperazin-1-yl)phenyl)-3-hydroxy-6-methylpyridin-4-yl)-2-chlorophenyl)-3-methylimidazolidin-2-one], in assay [2] (setting [4]), the GI50 was in the range of 0.3 to 30 nM.

In assay [2] (setting [4]), `[2H]C([2H])([2H])n1ccn(-c2ccc(-c3cc(F)nc(-c4cccc(N5CCN(C(C)(C)C)CC5)c4)c3O)cc2Cl)c1=O` [Example 1047, 1-(4-(2-(3-(4-(tert-butyl)piperazin-1-yl)phenyl)-6-fluoro-3-hydroxypyridin-4-yl)-2-chlorophenyl)-3-(methyl-d3)-1,3-dihydro-2H-imidazol-2-one] yielded a GI50 of 0.3 to 30 nM.

In turn, `Cc1cc(-c2ccc(-n3ccn(C)c3=O)c(Cl)c2)c(O)c(-c2ccc(=O)n(C3CCN(C(C)C)CC3)c2)n1` [Example 1048, 4-(3-Chloro-4-(3-methyl-2-oxo-2,3-dihydro-1H-imidazol-1-yl)phenyl)-3-hydroxy-1′-(1-isopropylpiperidin-4-yl)-6-methyl-[2,3′-bipyridin]-6′(1′H)-one] returned a concentration for 50% growth inhibition (GI50) in assay [2] (setting [4]) of 30 to 300 nM.

In turn, `Cn1ccn(-c2ccc(-c3cc(F)nc(-c4cnc(O)c(N5CCN(C(C)(C)C)CC5)c4)c3O)cc2Cl)c1=O` [Example 1049, 1-(4-(5′-(4-(tert-butyl)piperazin-1-yl)-6-fluoro-3,6′-dihydroxy-[2,3′-bipyridin]-4-yl)-2-chlorophenyl)-3-methyl-1,3-dihydro-2H-imidazol-2-one] had a GI50 in assay [2] (setting [4]) of 30 to 300 nM.

With `Cc1cc(-c2cc(F)nc(-c3cccc(N4CCN(C(C)(C)C)CC4)c3)c2O)ccc1-n1ccn(C)c1=O` [Example 1050, 1-(4-(2-(3-(4-(tert-butyl)piperazin-1-yl)phenyl)-6-fluoro-3-hydroxypyridin-4-yl)-2-methylphenyl)-3-methyl-1,3-dihydro-2H-imidazol-2-one], in assay [2] (setting [4]), the GI50 lay in the range of 0.3 to 30 nM.

In turn, `CC1=CCN(c2ccc(-c3cc(F)cc(-c4cccc(N5CCN(C(C)(C)C)CC5)c4)c3O)cc2Cl)C1=O` [Example 1051, 1-(3″-(4-(tert-Butyl)piperazin-1-yl)-3-chloro-5′-fluoro-2′-hydroxy-[1,1′:3′,1″-terphenyl]-4-yl)-3-methyl-1,5-dihydro-2H-pyrrol-2-one] registered a GI50 in assay [2] (setting [4]) of 0.3 to 30 nM.

`CC(C)(C)N1CCN(c2cccc(-c3cc(F)cc(-c4ccc(-n5ccsc5=O)c(Cl)c4)c3O)c2)CC1` [Example 1052, 3-(3″-(4-(tert-butyl)piperazin-1-yl)-3-chloro-5′-fluoro-2′-hydroxy-[1,1′:3′,1″-terphenyl]-4-yl)thiazol-2(3H)-one]: the GI50 in assay [2] (setting [4]) was 0.3 to 30 nM.

`Cc1cc(-c2ccc(-n3ccsc3=O)c(Cl)c2)c(O)c(-c2cccc(N3CCN(C(C)(C)C)CC3)c2)n1` [Example 1053, 3-(4-(2-(3-(4-(tert-butyl)piperazin-1-yl)phenyl)-3-hydroxy-6-methylpyridin-4-yl)-2-chlorophenyl)thiazol-2(3H)-one] registered a GI50 in assay [2] (setting [4]) of 0.3 to 30 nM.

For the compound `Cn1ccn(-c2ccc(-c3cc(F)nc(-c4cccc(N5CCN(C(C)(C)C)CC5)c4)c3O)cc2F)c1=O` [Example 1054, 1-(4-{2-[3-(4-tert-Butyl-piperazin-1-yl)-phenyl]-6-fluoro-3-hydroxy-pyridin-4-yl}-2-fluoro-phenyl)-3-methyl-1,3-dihydro-imidazol-2-one], the GI50 in assay [2] (setting [4]) lay within 0.3 to 30 nM.

`CC1=CCN(c2ccc(-c3cc(C)nc(-c4cccc(N5CCN(C(C)(C)C)CC5)c4)c3O)cc2Cl)C1=O` [Example 1055, 1-(4-(2-(3-(4-(tert-butyl)piperazin-1-yl)phenyl)-3-hydroxy-6-methylpyridin-4-yl)-2-chlorophenyl)-3-methyl-1,5-dihydro-2H-pyrrol-2-one] returned a GI50 in assay [2] (setting [4]) of 0.3 to 30 nM.

In turn, `Cn1ccn(-c2ccc(-c3cc(F)nc(-c4cccc(N5CCN(C(C)(C)C)CC5)c4)c3N)cc2Cl)c1=O` [Example 1056, 1-(4-(3-amino-2-(3-(4-(tert-butyl)piperazin-1-yl)phenyl)-6-fluoropyridin-4-yl)-2-chlorophenyl)-3-methyl-1,3-dihydro-2H-imidazol-2-one] showed a GI50 in assay [2] (setting [4]) of 0.3 to 30 nM.

In assay [2] (setting [4]), `Cn1ccn(-c2ccc(-c3nc(F)cc(-c4cccc(N5CCN(C(C)(C)C)CC5)c4)c3N)cc2Cl)c1=O` [Example 1057, 1-(4-(3-amino-4-(3-(4-(tert-butyl)piperazin-1-yl)phenyl)-6-fluoropyridin-2-yl)-2-chlorophenyl)-3-methyl-1,3-dihydro-2H-imidazol-2-one] came in with a GI50 of 0.3 to 30 nM.

Take `Cn1ccn(-c2ccc(-c3cc(F)cc(-c4cccc(N5CCN(C(C)(C)C)CC5)c4)c3N)cc2Cl)c1=O` [Example 1058, 1-[2′-Amino-3-(4-tert-butyl-piperazin-1-yl)-3″-chloro-5′-fluoro-[1,1′;3′,1″ ]terphenyl-4″-yl]-3-methyl-1,3-dihydro-imidazol-2-one]: in assay [2] (setting [4]), the GI50 is 0.3 to 30 nM.

`CCc1ncc(-c2nc(F)cc(-c3ccc(-n4ccn(C)c4=O)c(Cl)c3)c2O)cc1N1CCN(C(C)(C)C)CC1` [Example 1059, 1-(4-(5′-(4-(tert-butyl)piperazin-1-yl)-6′-ethyl-6-fluoro-3-hydroxy-[2,3′-bipyridin]-4-yl)-2-chlorophenyl)-3-methyl-1,3-dihydro-2H-imidazol-2-one]: the GI50 in assay [2] (setting [4]) fell in the range of 0.3 to 30 nM.

The record behind these values is patent publication US20250179059A1 (The Regents of the University of California, priority 2021, published 2025).
